{"source": "patent US20170368082A1", "about": "“FORMULATIONS OF BRINCIDOFOVIR” (priority 2016, published 2017)", "experiment": "Tissue distribution by quantitative whole-body autoradiography (QWBA)", "type": "in vivo, male Sprague Dawley and Long-Evans rats", "conditions": "for Cmax Ratio (PO/IV) / AUCall Ratio (PO/IV): 15 mg/kg, Group 7 vs Group 4", "description": "The study utilized 4 groups of male SD rats (albino), and 3 groups of male LE rats (pigmented); a total of 39 rats. All animals were obtained from Hilltop Lab Animals, Inc. (Scottdale, Pa.). […] Rats in Group 5 were administered a single 2-h IV infusion of [^14C]brincidofovir at a target dose of 2 mg/kg. […] Three dosing formulations (one for high dose IV, one for low dose IV, and one for PO dose) were prepared at QPS on the day of dosing. The IV formulation for Groups 1, 2, 3, and 4 contained a vehicle of 10 mM sodium phosphate buffer in 5% dextrose solution at pH 8.0(±0.1).\nEach animal, at their respective termination time points, was euthanized for QWBA analysis immediately after blood collection. One rat per time point per Group was euthanized as listed below.\nThe blood samples were maintained on wet ice (approximately 4° C.) and then centrifuged to obtain plasma within 1 h of the blood collection time. Centrifuge settings were recorded in the study notebook. Duplicate aliquots of plasma (0.050 mL) were analyzed for radioactivity using direct counting by LSC, and residual plasma was stored at approximately −70° C. and was saved for possible future analysis under a separate study protocol. Residual red blood cells were discarded as radioactive waste.\nThe pinna, distal limbs, hair, and tail were removed from each frozen carcass and each frozen carcass was embedded in an aqueous suspension of approximately 2% (w/v) carboxymethylcellulose and frozen into a block. The blocks were stored at approximately −20° C. prior to sectioning. Each blocked carcass was mounted on the object stage of a cryomicrotome (Leica CM3600 Cryomacrocut, Nussloch, Germany and Vibratome 9800, St. Louis, Mo.) maintained at approximately −20° C. and internal standards (3), which were plasma fortified with [^14C]-glucose at one concentration (approximately 0.05 μCi/mL), were placed into the frozen blocks, prior to sectioning, and were used for section thickness quality control. A number of whole-body sections (approximately 40 μm thick) were taken in the sagittal plane at various levels of interest using a whole-body cryomicrotome set at −20° C. Sagittal sections (20-50 μm thick) of frozen carcasses were exposed to phosphor imaging plates. Regions of images in tissues were converted to concentrations using standards. All of the major tissues, organs, and biological fluids were represented.\nTissue concentration data was determined for the following tissues and/or contents: adipose (brown and white), adrenal gland, bile (in duct), blood (cardiac), bone, bone marrow, brain (cerebrum, cerebellum, medulla), cecum (and contents), large intestine (and contents), epididymis, esophagus, eye (uvea and lens), Harderian gland, heart, kidney (cortex and medulla), liver, lung, lymph node, pancreas, pituitary gland, prostate gland, salivary gland, seminal vesicles, skeletal muscle, skin (pigmented and non-pigmented), small intestine (and contents), stomach (gastric mucosa and contents), spleen, spinal cord, testis, thymus, thyroid, and urinary bladder (and contents).\nThe imaging plate and sections were placed in light-tight exposure cassettes, in a copper-lined lead safe, for a 4-day exposure at room temperature. […] Quantification was performed by image densitometry using MCD image analysis software (v. 7.0, Interfocus Imaging Ltd) and a standard curve constructed from the integrated response [i.e., Molecular Dynamics Counts per square millimeter (MDC/mm^2)] and the nominal concentrations of the ^14C-calibration standards. The concentrations of radioactivity were expressed as the μg equivalents of [^14C]brincidofovir per gram sample (μg equiv/g). A lower limit of quantification (LLOQ) was applied to the data (See section 6.7.4).\nTissue concentrations that fell below the LLOQ were identified as being below the quantification limit (BQL). Tissue areas that were not visualized on autoradiographic images were identified as no sample (NS) and reported as BQL.", "data": [{"smiles": "CCCCCCCCCCCCCCCCOCCCOP(=O)(O)CO[C@H](CO)Cn1ccc(N)nc1=O", "note": "[[^14C] brincidofovir]", "values": [{"measurement": "Cmax Ratio (PO/IV)", "setting": "Liver", "result": 0.16}, {"measurement": "AUCall", "setting": "Liver, 2 h IV infusion 15 mg/kg, Group 4", "result": 2149.7645, "unit": "μg equiv · h/g"}, {"measurement": "Tissue Concentration (168 h)", "setting": "Liver, 2 h IV infusion 15 mg/kg, Group 4, LLOQ 0.036", "result": 0.451, "unit": "μg equiv/g"}, {"measurement": "Tissue Concentration (168 h)", "setting": "Liver, PO 15 mg/kg, Group 7, LLOQ 0.034", "result": 0.393, "unit": "μg equiv/g"}, {"measurement": "AUCall", "setting": "Liver, PO 15 mg/kg, Group 7", "result": 1426.6340, "unit": "μg equiv · h/g"}, {"measurement": "AUCall Ratio (PO/IV)", "setting": "Lung", "result": 0.29}, {"measurement": "Cmax Ratio (PO/IV)", "setting": "Lung", "result": 0.16}, {"measurement": "AUCall", "setting": "Lung, 2 h IV infusion 15 mg/kg, Group 4", "result": 180.1960, "unit": "μg equiv · h/g"}, {"measurement": "Tissue Concentration (168 h)", "setting": "Lung, 2 h IV infusion 15 mg/kg, Group 4, LLOQ 0.036", "result": 0.178, "unit": "μg equiv/g"}, {"measurement": "Tissue Concentration (168 h)", "setting": "Lung, PO 15 mg/kg, Group 7, LLOQ 0.034", "result": 0.065, "unit": "μg equiv/g"}, {"measurement": "AUCall", "setting": "Lung, PO 15 mg/kg, Group 7", "result": 53.1145, "unit": "μg equiv · h/g"}, {"measurement": "AUCall Ratio (PO/IV)", "setting": "Lymph Node", "result": 0.41}, {"measurement": "Cmax Ratio (PO/IV)", "setting": "Lymph Node", "result": 0.11}, {"measurement": "AUCall", "setting": "Lymph Node, 2 h IV infusion 15 mg/kg, Group 4", "result": 208.8530, "unit": "μg equiv · h/g"}, {"measurement": "Tissue Concentration (168 h)", "setting": "Lymph Node, 2 h IV infusion 15 mg/kg, Group 4, LLOQ 0.036", "result": 0.247, "unit": "μg equiv/g"}, {"measurement": "Tissue Concentration (168 h)", "setting": "Lymph Node, PO 15 mg/kg, Group 7, LLOQ 0.034", "result": 0.129, "unit": "μg equiv/g"}, {"measurement": "AUCall", "setting": "Lymph Node, PO 15 mg/kg, Group 7", "result": 85.04, "unit": "μg equiv · h/g"}, {"measurement": "AUCall Ratio (PO/IV)", "setting": "Pancreas", "result": 0.29}, {"measurement": "Cmax Ratio (PO/IV)", "setting": "Pancreas", "result": 0.13}, {"measurement": "AUCall", "setting": "Pancreas, 2 h IV infusion 15 mg/kg, Group 4", "result": 36.2010, "unit": "μg equiv · h/g"}, {"measurement": "Tissue Concentration (168 h)", "setting": "Pancreas, 2 h IV infusion 15 mg/kg, Group 4, LLOQ 0.036", "result": "BQL"}, {"measurement": "Tissue Concentration (168 h)", "setting": "Pancreas, PO 15 mg/kg, Group 7, LLOQ 0.034", "result": "BQL"}, {"measurement": "AUCall", "setting": "Pancreas, PO 15 mg/kg, Group 7", "result": 10.3720, "unit": "μg equiv · h/g"}, {"measurement": "AUCall Ratio (PO/IV)", "setting": "Pituitary Gland", "result": 0.20}, {"measurement": "Cmax Ratio (PO/IV)", "setting": "Pituitary Gland", "result": 0.05}, {"measurement": "AUCall", "setting": "Pituitary Gland, 2 h IV infusion 15 mg/kg, Group 4", "result": 155.1085, "unit": "μg equiv · h/g"}, {"measurement": "Tissue Concentration (168 h)", "setting": "Pituitary Gland, 2 h IV infusion 15 mg/kg, Group 4, LLOQ 0.036", "result": 0.189, "unit": "μg equiv/g"}, {"measurement": "Tissue Concentration (168 h)", "setting": "Pituitary Gland, PO 15 mg/kg, Group 7, LLOQ 0.034", "result": 0.042, "unit": "μg equiv/g"}, {"measurement": "AUCall", "setting": "Pituitary Gland, PO 15 mg/kg, Group 7", "result": 30.5073, "unit": "μg equiv · h/g"}, {"measurement": "AUCall Ratio (PO/IV)", "setting": "Prostate Gland", "result": 0.62}, {"measurement": "Cmax Ratio (PO/IV)", "setting": "Prostate Gland", "result": 0.30}, {"measurement": "AUCall", "setting": "Prostate Gland, 2 h IV infusion 15 mg/kg, Group 4", "result": 24.3415, "unit": "μg equiv · h/g"}, {"measurement": "Tissue Concentration (168 h)", "setting": "Prostate Gland, 2 h IV infusion 15 mg/kg, Group 4, LLOQ 0.036", "result": "BQL"}, {"measurement": "Tissue Concentration (168 h)", "setting": "Prostate Gland, PO 15 mg/kg, Group 7, LLOQ 0.034", "result": "BQL"}, {"measurement": "AUCall", "setting": "Prostate Gland, PO 15 mg/kg, Group 7", "result": 7.6578, "unit": "μg equiv · h/g"}, {"measurement": "AUCall Ratio (PO/IV)", "setting": "Salivary Gland", "result": 0.15}, {"measurement": "Cmax Ratio (PO/IV)", "setting": "Salivary Gland", "result": 0.09}, {"measurement": "AUCall", "setting": "Salivary Gland, 2 h IV infusion 15 mg/kg, Group 4", "result": 60.9180, "unit": "μg equiv · h/g"}, {"measurement": "Tissue Concentration (168 h)", "setting": "Salivary Gland, 2 h IV infusion 15 mg/kg, Group 4, LLOQ 0.036", "result": 0.056, "unit": "μg equiv/g"}, {"measurement": "Tissue Concentration (168 h)", "setting": "Salivary Gland, PO 15 mg/kg, Group 7, LLOQ 0.034", "result": "BQL"}, {"measurement": "AUCall", "setting": "Salivary Gland, PO 15 mg/kg, Group 7", "result": 9.1933, "unit": "μg equiv · h/g"}, {"measurement": "AUCall Ratio (PO/IV)", "setting": "Seminal Vesicles", "result": 0.17}, {"measurement": "Cmax Ratio (PO/IV)", "setting": "Seminal Vesicles", "result": 0.45}, {"measurement": "AUCall", "setting": "Seminal Vesicles, 2 h IV infusion 15 mg/kg, Group 4", "result": 297.3580, "unit": "μg equiv · h/g"}, {"measurement": "Tissue Concentration (168 h)", "setting": "Seminal Vesicles, 2 h IV infusion 15 mg/kg, Group 4, LLOQ 0.036", "result": 0.361, "unit": "μg equiv/g"}, {"measurement": "Tissue Concentration (168 h)", "setting": "Seminal Vesicles, PO 15 mg/kg, Group 7, LLOQ 0.034", "result": 0.063, "unit": "μg equiv/g"}, {"measurement": "AUCall", "setting": "Seminal Vesicles, PO 15 mg/kg, Group 7", "result": 50.2500, "unit": "μg equiv · h/g"}, {"measurement": "AUCall Ratio (PO/IV)", "setting": "Skeletal Muscle", "result": 0.13}, {"measurement": "Cmax Ratio (PO/IV)", "setting": "Skeletal Muscle", "result": 0.16}, {"measurement": "AUCall", "setting": "Skeletal Muscle, 2 h IV infusion 15 mg/kg, Group 4", "result": 10.3485, "unit": "μg equiv · h/g"}, {"measurement": "Tissue Concentration (168 h)", "setting": "Skeletal Muscle, 2 h IV infusion 15 mg/kg, Group 4, LLOQ 0.036", "result": "BQL"}, {"measurement": "Tissue Concentration (168 h)", "setting": "Skeletal Muscle, PO 15 mg/kg, Group 7, LLOQ 0.034", "result": "BQL"}, {"measurement": "AUCall", "setting": "Skeletal Muscle, PO 15 mg/kg, Group 7", "result": 1.3265, "unit": "μg equiv · h/g"}, {"measurement": "AUCall Ratio (PO/IV)", "setting": "Skin (non-pigmented)", "result": 0.10}, {"measurement": "Cmax Ratio (PO/IV)", "setting": "Skin (non-pigmented)", "result": 0.17}, {"measurement": "AUCall", "setting": "Skin (non-pigmented), 2 h IV infusion 15 mg/kg, Group 4", "result": 146.2340, "unit": "μg equiv · h/g"}]}]}
